The values that follow come from patent publication US10265278B2, “Pharmaceutical compositions and methods utilizing a D-amino acid” (priority 2008, dated 2019).

Data set [1] deals with rat kidney. The following applies: cited from earlier work; for Effect on nephrotoxic effects of orally administered DL-serine: DL-serine 100 mg oral, test compound subcutaneous or intramuscular, rats (Wachstein); for Protective effect against D-serine nephrotoxicity: compound injected prior to D-serine (Kaltenbach et al 1982).
Data set [2] relates to rat kidney. As to conditions: cited from earlier work.
The subject of data set [3] is Sprague Dawley rats. The experiment in a line: Creatanine levels in rats during oral D-serine treatment with or without glutathione precursors. Format: in vivo. As to the method: (§1) Rats were divided into 5 separate groups of four male and four female animals each.
(§2) In addition, a control group received only standard diet. […] Effects of various doses were investigated in a sequential manner starting with 50 mg/kg. Dose level was doubled every three days up to four doses (50 mg, 100 mg, 200 mg & 400 mg).
(§3) Nephrotoxicity was assessed in two ways: first, by creatanine levels and second by histophathology at necropsy.

In data set [4] the test system is Sprague Dawley rats. In words: Histopathological examination of kidney at necropsy (tubular nephrosis grade). Format: in vivo. The following applies: histopathology at necropsy; oral gavage up to 400 mg/kg. As to the method:
as §1, §2, §3

Data set [5] concerns rat kidney. The following applies: rats (Dickey et al 2007), cited from earlier work.
The conditions of data set [6]: oral NAC vs. hydration alone; cited from earlier work.

Like-named read-outs stand apart in the source and are kept apart here.

Take `CC(N)C(=O)O` (racemic) [DL-alpha-alanine]: the “Effect on nephrotoxic effects of orally administered DL-serine” value (shortened to “Effect on nephrotoxic effects”) in data set [1] is “relatively ineffective”.

For the compound `CC(N)(CO)C(=O)O` (racemic) [DL-alpha-methylserine], in data set [1], the “Protective effect against D-serine nephrotoxicity” value (“Protective effect” for short) is reported as “significant protective effects”.

Turning to `CSCCC(N)C(=O)O` (racemic) [DL-methionine], in data set [1], the “Effect on nephrotoxic effects” value is “blocked”.

In the case of `NC(CO)C(=O)O` (racemic) [DL-serine], the Renal injury induced entry in data set [2] (100 mg DL-serine, rats, stock diet or diet deficient in B vitamins) is on record as “acute renal necrosis”.

As for `C[C@@H](O)[C@H](N)C(=O)O` (racemic) [DL-threonine], the “Effect on nephrotoxic effects” value in data set [1] is “partial or full prevention of toxicity”.

Turning to `CC(C)C(N)C(=O)O` (racemic) [DL-valine], the “Effect on nephrotoxic effects” value in data set [1] is on record as “relatively ineffective”.

With `CC(C)C(O)C(N)C(=O)O` (racemic) [beta-hydroxy-DL-leucine], in data set [1], the “Protective effect” value was “significant protective effects”.

Consider `OCC(S)CS` (stereo not shown) [2,3 dithiopropanol], for which the “Effect on nephrotoxic effects” value in data set [1] is “relatively ineffective”.

As to `C[C@@H](N)C(=O)O` [D-alanine], the “Protective effect” value in data set [1] was “significant protective effects”.

Turning to `O=C[C@H](O)[C@@H](O)[C@H](O)[C@H](O)CO` [D-glucose], the “Effect on nephrotoxic effects” value in data set [1] is “relatively ineffective”.

`N[C@H](CCO)C(=O)O` [D-homoserine]: the “Protective effect” value in data set [1] was “significant protective effects”.

Turning to `C[C@H](O)[C@@H](N)C(=O)O` [D-threonine], the “Protective effect” value in data set [1] is “significant protective effects”.

In the case of `N[C@H](CO)C(=O)O` [Group A, D-serine], the “Increase in creatanine levels during treatment” value in data set [3] (post vs. pre, in words) was “significant increase”. In addition, the “Creatanine level, Change mean” value in data set [3] (post- minus pre-treatment) was 0.12. Moreover, the “Creatanine level, Post-treatment mean” value in data set [3] (post-treatment, oral gavage, doses escalated 50, 100, 200, 400 mg/kg) was 0.77. For the same compound, the “Creatanine level, Pre-treatment Mean” value in data set [3] (pre-treatment (baseline), rats, oral gavage) is given as 0.65. Further, the “Nephrosis level (mean severity grade of tubular nephrosis)” value in data set [4] is listed as 1.91. Further, the “Nephrotoxicity in rats lacking DAAO” value in data set [2] (rats lacking DAAO (Maekawa et al 2005)) is listed as “not nephrotoxic”. Moreover, the “Smallest dose consistently producing renal lesions” value in data set [2] (rats) is recorded as 5 mg per 100 g.

In the case of `N=C(N)NCCC[C@H](N)C(=O)O` [L-arginine], the “Effect on nephrotoxic effects” value in data set [1] is reported as “relatively ineffective”.

Turning to `N[C@@H](Cc1c[nH]cn1)C(=O)O` [L-histidine], the “Effect on nephrotoxic effects” value in data set [1] was “relatively ineffective”.

For the compound `CC(=O)N[C@@H](CS)C(=O)O` [NAC, N-acetylcysteine], the “Effect against cisplatin-induced experimental nephrotoxicity” value in data set [5] (intravenous NAC) is “effective”; in data set [5] (oral NAC), “not found beneficial effects”. Further, the “Blockade of nephrotoxicity due to intravenous contrast” value in data set [6] is “not found benefit over hydration alone”.

As for `CC(C)(N)C(=O)O` [alpha-aminoisobutryic acid], the “Protective effect” value in data set [1] is “significant protective effects”.

With `CCCC(=O)O` [butyric acid], the “Effect on nephrotoxic effects” value in data set [1] is “relatively ineffective”.

Regarding `N[C@@H](CCC(=O)N[C@@H](CS)C(=O)NCC(=O)O)C(=O)O` [glutathione], in data set [1], the “Effect on nephrotoxic effects” value is recorded as “blocked”. Further, in data set [1] (intrarenal injection, equimolar with D-serine (Krug et al 2007)), the “Prevention of D-serine toxicity” value was “toxicity can be prevented”.

With `NCC(=O)O` [glycine], the “Effect on nephrotoxic effects” value in data set [1] is “partial or full prevention of toxicity”.

On to `CC(=O)[O-].[Na+]` [sodium acetate], for which the “Effect on nephrotoxic effects” value in data set [1] is listed as “relatively ineffective”.

As to `O=C([O-])c1ccccc1.[Na+]` [sodium benzoate], in data set [1] (intraperitoneal, large doses (Williams and Lock 2005)), the “Prevention of D-serine toxicity” value is “toxicity can be prevented”.

For the compound `[Cl-].[Na+]` [sodium chloride], the “Effect on nephrotoxic effects” value in data set [1] is given as “relatively ineffective”.

As for `CC(O)C(=O)[O-].[Na+]` (stereo not shown) [sodium lactate], in data set [1], the “Effect on nephrotoxic effects” value is recorded as “partial or full prevention of toxicity”.

For `O=C([O-])CS.[Na+]` [sodium thioglycollate], in data set [1], the “Effect on nephrotoxic effects” value was “relatively ineffective”.
